Measured values reported in the supplement of paper PMC11451515.

Test system: SEM cells
Experiment: AUC of viability dose-response curve (% viability x log10 dose units); higher = less sensitive
Settings: 48 h
In short: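 Leukemia cells adapted to each medium were seeded in 1536-well plates (500 or 1000 cells/well). They were dosed with library compounds in DMSO at 11 threefold doses, 47 μM to 0.79 nM, for 48 h at 37°C. CellTiter-Glo One luminescence was normalised per plate to DMSO and cell-free wells. Area under the curve was integrated by trapezoidal rule over log10 doses on a four-parameter log-logistic fit; curves exceeding full viability were scaled and curves failing quality control removed.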

[1] = RPMI 5 mM glucose + 10% dialyzed FBS

| SMILES | AUC of viability dose-response curve (HPLM + 10% dialyzed FBS) | AUC of viability dose-response curve (RPMI 5 mM glucose + 10% FBS) | AUC of viability dose-response curve [1] |
| --- | --- | --- | --- |
| CCCC[N+]1(C)[C@@H]2CC(OC(=O)[C@H](CO)c3ccccc3)C[C@H]1[C@@H]1O[C@@H]12 (stereo not given in full) | 462 | 471 | 475 |
| CNC(=O)c1ccccc1Sc1ccc2c(/C=C/c3ccccn3)n[nH]c2c1 | 407 | 389 | 395 |
| Cc1cc(-c2ccc(CC(=O)Nc3ccc(-c4cccnc4)cc3)cc2)ccn1 | 392 | 418 | 413 |
| CC1CCN(c2cc(N3CCN(C)CC3)ccc2NC(=O)c2cc(C#N)c[nH]2)CC1 | 456 | 444 | 451 |
| COc1ccc2c(c1)CC[C@@H](CN(C)CC(=O)O)[C@H]2c1ccccc1 | 373 | 362 | 385 |
| CC(=O)O/N=C1/C(=C2\C(=O)Nc3cc(Br)ccc32)Nc2ccccc21 | 324 | 317 | 308 |
| CCCCc1oc2ccccc2c1C(=O)c1cc(I)c(OCCN(CC)CC)c(I)c1 | 458 | 465 | 454 |
| Cc1n[nH]c(C)c1Cc1sc2c(c1C(=O)N1C[C@H](O)CO1)c(=O)n(C)c(=O)n2CC(C)C | 366 | 408 | 444 |
| COC1=CC(=C2C(=O)N(COC/3=C/C(=O)N4\C=C/C=C(OCCN5CCCCC5)\C4=N3)[S+]([O-])(=O)C2=C1)C(C)C | 476 | 452 | 436 |
| Cc1n[nH]c2ccc(-c3cncc(OC[C@@H](N)Cc4c[nH]c5ccccc45)c3)cc12 | 245 | 286 | 265 |
